Values after ≈ are worked out from the molar mass of the structure shown.
How the values were obtained:
[1] = test system: Pseudomonas aeruginosa Bin H No. 1; assay: Anti-bacterial activity, minimum inhibitory concentration by agar dilution method; assay type: cell-based; details: pH=7.0
Experimental: (§1) Minimum inhibitory concentration (μg/ml) was measured by the agar dilution method using a medium (pH=7.0) which was prepared by dissolving Bactotryptone medium (3 g; commercial product of Difco, U.S.A.), meat extract (3 g), yeast extract (1 g), glucose (1 g) and agar (16 g) in water (1 l).

[2] = test system: Shigella sonnei ATCC 9290; assay: as above; assay type: cell-based; details: ATCC9290, pH=7.0
Experimental: as §1

[3] = test system: Staphylococcus aureus ATCC 6538P; assay: as above; assay type: cell-based; details: ATCC6538P, pH=7.0
Experimental: as §1

[4] = test system: Bacillus subtilis No. 10707; assay: as above; assay type: cell-based; details: pH=7.0
Experimental: as §1

[5] = test system: Salmonella typhi ATCC 9992; assay: as above; assay type: cell-based; details: Salmonella enterica, read-out: Minimum inhibitory concentration
Experimental: as §1

[6] = test system: Enterococcus faecium ATCC 10541; assay: as above; assay type: cell-based; details: ATCC10541, pH=7.0
Experimental: as §1

[7] = test system: Candida albicans ATCC 10231; assay: as above; assay type: cell-based; details: ATCC10231, pH=7.0
Experimental: as §1

[8] = test system: Klebsiella pneumonia ATCC 10031; assay: as above; assay type: cell-based; details: Klebsiella pneumoniae, ATCC10031, pH=7.0
Experimental: as §1

Escherichia coli ATCC 26 = assay: as above; assay type: cell-based; details: ATCC26, pH=7.0
Experimental: as §1

MCF7 cells (ATCC HTB22) = assay: Anti-tumour activity, MCF7 cell growth inhibition (neutral red); assay type: cell-based; details: Homo sapiens, 72 hours, 37° C., absorptivity at 550 nm
Experimental: MCF7 cells (ATCC HTB22) was add to RPMI-1640 medium (commercial product of Gibco, U.S.A.) containing 10 % fetal calf serum, insulin (10 μg/ml) and estradiol (10^-8 M) (hereinafter referred to as medium A) to prepare a cell suspension containing 4.5×10^4 cell/ml.
On each occasion, 0.1 ml of the suspension was poured into each well of a 96 well microtitre plate and incubated at a temperature of 37° C. for 20 hours in a carbon dioxide incubator. Then a test compound (each 0.05 ml) was added to each well, followed by incubation similarly for 72 hours. After removal of the supernatant, another medium (0.1 ml) containing medium A and 0.02% neutral red was added to the material for incubating similarly for one hour to dye the cells. The supernatant was removed, and the residue was washed once with physiological Saline. Then the dyestuff was removed by using an aqueous solution of ethanol (30%) containing 0.001N hydrochloric acid.
The absorptivity at 550 nm of the material was measured by the use of a microplate reader. The absorptivity of the treated cells was compared with the absorptivity of untreated cells to measure the IC50 value viz. the concentration of the test compound required to inhibit the growth of the cells by 50%.

[9] = Solubility in various solvents; assay type: physicochemical; details: for Solubility in various solvents (soluble): organic solvents; for Solubility in various solvents (insoluble): water, n-hexane where named

With `CCCCC(C)/C=C(C)/C=C(\C)C(=O)NC1=CC(O)(/C=C/C=C/C=C/C(=O)NC2=C(O)CCC2=O)C2OC2C1=O` (stereo not shown) [Manumycin, reference compound] the MIC [1] was > 100 µg/mL, the MIC [2] was > 100 µg/mL and the MIC [3] was 1.3 µg/mL (≈ 2.36 µM). For the same compound, the MIC [4] was 0.3 µg/mL (≈ 0.545 µM), the MIC [5] was > 100 µg/mL and the MIC [6] was 2.6 µg/mL (≈ 4.72 µM). For the same compound, the MIC [7] was 21 µg/mL (≈ 38.1 µM), the MIC [8] was > 100 µg/mL and the MIC (Escherichia coli ATCC 26) was > 100 µg/mL. The IC50 (MCF7 cells (ATCC HTB22)) was 8.3 µg/mL (≈ 15.1 µM).

In the case of `CCCCC(C)/C=C(C)/C=C/C(=O)NC1=CC(=O)C2OC2C1=O` (stereo not shown) [UCF1-BX], the “Solubility in various solvents (soluble)” value [9] is reported as “Soluble in chloroform, methanol and diethyl ether”, the “Solubility in various solvents (insoluble)” value (“Solubility … (insoluble)” for short) [9] is reported as “Insoluble in water” and the MIC [1] is reported as 83 µg/mL (≈ 262 µM). The MIC [2] was > 100 µg/mL, the MIC [3] was 8.3 µg/mL (≈ 26.2 µM) and the MIC [4] was 0.16 µg/mL (≈ 0.504 µM). The MIC [5] was > 100 µg/mL, the MIC [6] was 0.65 µg/mL (≈ 2.05 µM) and the MIC [7] was 42 µg/mL (≈ 132 µM). For the same compound, the MIC [8] was > 100 µg/mL, the MIC (Escherichia coli ATCC 26) was > 100 µg/mL and the IC50 (MCF7 cells (ATCC HTB22)) was 7.5 µg/mL (≈ 23.6 µM).

With `CCCCC(C)/C=C(\C)C(=O)NC1=CC(O)(/C=C/C=C/C=C/C(=O)NC2=C(O)CCC2=O)C2OC2C1=O` (stereo not shown) [UCF1-A] the “Solubility in various solvents (soluble)” value [9] was “Soluble in chloroform, dimethylsulfoxide, ethyl acetate, methanol and acetone”, the “Solubility … (insoluble)” value [9] was “Insoluble in n-hexane and water” and the MIC [1] was > 100 µg/mL. The MIC [2] was > 100 µg/mL, the MIC [3] was 2.6 µg/mL (≈ 5.09 µM) and the MIC [4] was 10 µg/mL (≈ 19.6 µM). For the same compound, the MIC [5] was > 100 µg/mL, the MIC [6] was 10 µg/mL (≈ 19.6 µM) and the MIC [7] was > 100 µg/mL. For the same compound, the MIC [8] was > 100 µg/mL, the MIC (Escherichia coli ATCC 26) was > 100 µg/mL and the IC50 (MCF7 cells (ATCC HTB22)) was 12.5 µg/mL (≈ 24.5 µM).

With `CCCCC(C)/C=C(\C)C(=O)NC1=CC(=O)C2OC2C1=O` (stereo not shown) [UCF1-AX] the “Solubility in various solvents (soluble)” value [9] was “Soluble in chloroform, methanol and diethyl ether”, the “Solubility … (insoluble)” value [9] was “Insoluble in water” and the MIC [1] was 83 µg/mL (≈ 285 µM). It also gave an MIC [2] of 10 µg/mL (≈ 34.3 µM), an MIC [3] of 10 µg/mL (≈ 34.3 µM) and an MIC [4] of 1.3 µg/mL (≈ 4.46 µM). For the same compound, the MIC [5] was 21 µg/mL (≈ 72.1 µM), the MIC [6] was 10 µg/mL (≈ 34.3 µM) and the MIC [7] was 10 µg/mL (≈ 34.3 µM). It also gave an MIC [8] of 21 µg/mL (≈ 72.1 µM), an MIC (Escherichia coli ATCC 26) of 21 µg/mL (≈ 72.1 µM) and an IC50 (MCF7 cells (ATCC HTB22)) of 18.9 µg/mL (≈ 64.9 µM).

With `CCCCC(C)/C=C(C)/C=C/C(=O)NC1=CC(O)(/C=C/C=C/C=C/C(=O)NC2=C(O)CCC2=O)C2OC2C1=O` (stereo not shown) [UCF1-B] the “Solubility in various solvents (soluble)” value [9] was “Soluble in chloroform, dimethylsulfoxide, ethyl acetate, methanol and acetone”, the “Solubility … (insoluble)” value [9] was “Insoluble in n-hexane and water” and the MIC [1] was > 100 µg/mL. The MIC [2] was > 100 µg/mL, the MIC [3] was 2.6 µg/mL (≈ 4.85 µM) and the MIC [4] was 1.3 µg/mL (≈ 2.42 µM). For the same compound, the MIC [5] was > 100 µg/mL, the MIC [6] was 10 µg/mL (≈ 18.6 µM) and the MIC [7] was > 100 µg/mL. For the same compound, the MIC [8] was > 100 µg/mL, the MIC (Escherichia coli ATCC 26) was > 100 µg/mL and the IC50 (MCF7 cells (ATCC HTB22)) was 7.3 µg/mL (≈ 13.6 µM).
